Structures are written as SMILES.

Data set [1] concerns the target T1, alpha2A adrenergic receptor (Homo sapiens, UniProt P08913).
T1 construct: expressed in transfected cells; host or cells: NIH-3T3 cells
T1 sequence (P08913 1-465): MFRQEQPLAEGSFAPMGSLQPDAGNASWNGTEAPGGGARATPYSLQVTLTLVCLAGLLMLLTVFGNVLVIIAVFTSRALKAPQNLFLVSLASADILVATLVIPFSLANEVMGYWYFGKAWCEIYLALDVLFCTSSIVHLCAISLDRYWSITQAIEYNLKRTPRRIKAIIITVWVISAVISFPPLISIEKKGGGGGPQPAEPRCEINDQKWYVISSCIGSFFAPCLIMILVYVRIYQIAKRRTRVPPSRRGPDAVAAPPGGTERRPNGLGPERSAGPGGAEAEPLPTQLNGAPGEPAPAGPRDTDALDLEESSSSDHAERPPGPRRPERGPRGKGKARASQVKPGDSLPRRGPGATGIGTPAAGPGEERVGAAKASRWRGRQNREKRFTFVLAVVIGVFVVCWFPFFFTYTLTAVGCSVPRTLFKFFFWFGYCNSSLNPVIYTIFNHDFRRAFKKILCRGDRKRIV
The experiment in a line: Receptor Selection and Amplification Technology (RSAT) assay, alpha2A. The data set is classed as cell-based. The settings on record: RSAT in NIH-3T3 cells; ratio of maximal effect of drug to that of standard full agonist brimonidine (UK14304); NA = not active at concentrations less than 10 micromolar. From the text: (§1) The imidazole-2-thione compounds of the invention are agonists of alpha2 adrenergic receptors. […] Al., 1995, Pharmacol. Toxicol. 76, pp. 308-311 (incorporated herein by reference) and is also described below. Another reference pertinent to this assay is Conklin et al. (1993) Nature 363:274-6, also incorporated herein by reference.
(§2) Receptor Selection and Amplification Technology (RSAT) Assay
(§3) The RSAT assay measures a receptor-mediated loss of contact inhibition that results in selective proliferation of receptor-containing cells in a mixed population of confluent cells. The increase in cell number is assessed with an appropriate transfected marker gene such as β-galactosidase, the activity of which can be easily measured in a 96-well format. Receptors that activate the G protein, Gq, elicit this response. Alpha2 receptors, which normally couple to Gi, activate the RSAT response when coexpressed with a hybrid Gq protein that has a Gi receptor recognition domain, called Gq/i5.
(§4) NIH-3T3 cells are plated at a density of 2×10^6 cells in 15 cm dishes and maintained in Dulbecco's modified Eagle's medium supplemented with 10% calf serum. One day later, cells are cotransfected by calcium phosphate precipitation with mammalian expression plasmids encoding p-SV-β-galactosidase (5-10 μg), receptor (1-2 μg) and G protein (1-2 μg). 40 μg salmon sperm DNA may also be included in the transfection mixture. […] After washing with phosphate-buffered saline, β-galactosidase enzyme activity is determined by adding 200 μl of the chromogenic substrate (consisting of 3.5 mM o-nitrophenyl-β-D-galactopyranoside and 0.5% nonidet P-40 in phosphate buffered saline), incubating overnight at 30° C. and measuring optical density at 420 nm. The absorbance is a measure of enzyme activity, which depends on cell number and reflects a receptor-mediated cell proliferation. The efficacy or intrinsic activity is calculated as a ratio of the maximal effect of the drug to the maximal effect of a standard full agonist for each receptor subtype. […]

Data set [2] concerns the target T2, alpha2B adrenergic receptor (Homo sapiens, UniProt P18089).
T2 construct: expressed in transfected cells; host or cells: NIH-3T3 cells
T2 sequence (P18089 1-450): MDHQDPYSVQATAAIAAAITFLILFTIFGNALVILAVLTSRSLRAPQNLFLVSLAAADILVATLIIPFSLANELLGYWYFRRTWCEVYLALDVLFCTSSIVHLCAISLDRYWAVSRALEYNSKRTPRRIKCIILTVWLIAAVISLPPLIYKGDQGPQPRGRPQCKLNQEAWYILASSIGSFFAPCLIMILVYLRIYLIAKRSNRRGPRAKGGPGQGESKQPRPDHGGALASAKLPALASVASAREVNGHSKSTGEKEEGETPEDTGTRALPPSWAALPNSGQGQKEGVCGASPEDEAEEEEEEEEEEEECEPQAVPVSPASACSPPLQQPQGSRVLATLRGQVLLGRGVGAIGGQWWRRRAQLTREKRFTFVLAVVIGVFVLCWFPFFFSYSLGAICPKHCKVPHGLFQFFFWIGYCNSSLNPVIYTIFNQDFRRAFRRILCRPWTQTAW
Briefly: Receptor Selection and Amplification Technology (RSAT) assay, alpha2B. The data set is classed as cell-based. As to conditions: RSAT in NIH-3T3 cells; ratio of maximal effect of drug to that of standard full agonist brimonidine (UK14304); NA = not active at concentrations less than 10 micromolar.
Source text: as §1, §2, §3
NIH-3T3 cells are plated at a density of 2×10^6 cells in 15 cm dishes and maintained in Dulbecco's modified Eagle's medium supplemented with 10% calf serum. One day later, cells are cotransfected by calcium phosphate precipitation with mammalian expression plasmids encoding p-SV-β-galactosidase (5-10 μg), receptor (1-2 μg) and G protein (1-2 μg). 40 μg salmon sperm DNA may also be included in the transfection mixture. Fresh media is added on the following day and 1-2 days later, cells are harvested and frozen in 50 assay aliquots. Cells are thawed and 100 μl added to 100 μl aliquots of various concentrations of drugs in triplicate in 96-well dishes. Incubations continue 72-96 hr at 37° C. After washing with phosphate-buffered saline, β-galactosidase enzyme activity is determined by adding 200 μl of the chromogenic substrate (consisting of 3.5 mM o-nitrophenyl-β-D-galactopyranoside and 0.5% nonidet P-40 in phosphate buffered saline), incubating overnight at 30° C. and measuring optical density at 420 nm. The absorbance is a measure of enzyme activity, which depends on cell number and reflects a receptor-mediated cell proliferation. The efficacy or intrinsic activity is calculated as a ratio of the maximal effect of the drug to the maximal effect of a standard full agonist for each receptor subtype. […]
The RSAT assay measures a receptor-mediated loss of contact inhibition that results in selective proliferation of receptor-containing cells in a mixed population of confluent cells. The increase in cell number is assessed with an appropriate transfected marker gene such as ∃-galactosidase, the activity of which can be easily measured in a 96-well format. […]

Data set [3] concerns the target T3, alpha2C adrenergic receptor (Homo sapiens, UniProt P18825).
T3 construct: expressed in transfected cells; host or cells: NIH-3T3 cells
T3 sequence (P18825 1-462): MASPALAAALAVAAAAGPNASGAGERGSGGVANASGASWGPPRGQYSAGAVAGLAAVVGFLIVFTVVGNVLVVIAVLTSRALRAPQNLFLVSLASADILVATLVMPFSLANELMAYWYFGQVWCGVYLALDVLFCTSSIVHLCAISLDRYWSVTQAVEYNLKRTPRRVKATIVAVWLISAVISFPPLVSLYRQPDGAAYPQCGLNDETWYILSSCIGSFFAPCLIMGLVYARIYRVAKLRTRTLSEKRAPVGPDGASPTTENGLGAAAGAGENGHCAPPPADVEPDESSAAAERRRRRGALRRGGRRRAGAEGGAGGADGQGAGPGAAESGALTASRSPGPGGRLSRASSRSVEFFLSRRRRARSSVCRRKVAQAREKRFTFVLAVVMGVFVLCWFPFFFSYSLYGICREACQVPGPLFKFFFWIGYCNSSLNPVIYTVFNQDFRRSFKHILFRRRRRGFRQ
The experiment in a line: Receptor Selection and Amplification Technology (RSAT) assay, alpha2C. The data set is classed as cell-based. The settings on record: RSAT in NIH-3T3 cells; ratio of maximal effect of drug to that of standard full agonist brimonidine (UK14304); NA = not active at concentrations less than 10 micromolar.
Source text: as §1, §2, §3, §4

The next data set concerns male Sprague-Dawley rats. Briefly: Sedative activity (exploratory behavior/locomotor skills). As to conditions: intraperitoneally, up to a dose of 1 mg/kg, 30 minutes after injection. The data set is classed as in vivo, rat. As to the method:
To test sedation, six male Sprague-Dawley rats are given up to 3 mg/kg of the test compound in a saline or DMSO vehicle by intraperitoneal injection (i.p.). Sedation is graded 30 minutes following administration of the drug by monitoring locomotor skills as follows.
The Sprague-Dawley rats are weighed and 1 ml/kg body weight of an appropriate concentration (ie. 3 mg/ml for a final dose of 3 mg/kg) drug solution is injected intraperitoneally. Typically the test compound is formulated in approximately 10 to 50% DMSO. The results are compared to controls that are injected with 1 ml/kg saline or 10 to 50% DMSO. Rat activity is then determined 30 minutes after injection of the drug solution. Rats are placed in a dark covered chamber and a digicom analyzer (Omnitech Electronic) quantitates their exploratory behavior for a five-minute period. The machine records each time the rat interrupts an array of 32 photoelectric beams in the X and Y orientation.

Consider `CC(c1c[nH]c(=S)[nH]1)c1cccc(Cl)c1Cl` (stereo not drawn) [Compound 1, 4-[1-(2,3-dichloro-phenyl)-ethyl]-1,3-dihydro-imidazole-2-thione], for which, in data set [1], the “Intrinsic Activity Alpha 2A” value is given as 0.87. Besides, the “Intrinsic Activity Alpha 2B” value in data set [2] is listed as 0.85. Also, the “Intrinsic Activity Alpha 2C” value in data set [3] came to 1.03. For the same compound, in the data set on male Sprague-Dawley rats, the sedative effect result is recorded as “no sedative effect”.

Turning to `CC(c1c[nH]c(=S)[nH]1)c1cccc(F)c1F` (stereo not drawn) [Compound 2, 4-[1-(2,3-difluoro-phenyl)-ethyl]-1,3-dihydro-imidazole-2-thione], the “Intrinsic Activity Alpha 2A” value in data set [1] is given as 0.66. Moreover, in data set [2], the “Intrinsic Activity Alpha 2B” value is recorded as 0.99. The “Intrinsic Activity Alpha 2C” value in data set [3] was 0.83.

Consider `CC(c1c[nH]c(=S)[nH]1)c1cccc(C(F)(F)F)c1F` (stereo not drawn) [Compound 3, 4-[1-(2-fluoro-3-trifluoromethyl-phenyl)-ethyl]-1,3-dihydro-imidazole-2-thione], for which, in data set [1], the “Intrinsic Activity Alpha 2A” value was 0.88. In data set [2], the “Intrinsic Activity Alpha 2B” value is 1.04. Besides, the “Intrinsic Activity Alpha 2C” value in data set [3] is 0.84. The sedative effect result in the data set on male Sprague-Dawley rats is given as “no sedative effect”.

As to `CC(c1ccccc1)c1c[nH]c(=S)[nH]1` (stereo not drawn) [Compound 4, 4-(1-phenyl-ethyl)-1,3-dihydro-imidazole-2-thione], in data set [2], the “Intrinsic Activity Alpha 2B” value was 1.11.
